Assay results: article PMC7519686, “Engineering and application of a biosensor with focused ligand specificity” (Nature Communications, 2020)

Legend:
Format in all cases: binding
LysG [1] = target: T1, LysG (Corynebacterium glutamicum, UniProt P94632); assay: ITC with purified protein (fixed stoichiometry of two ligands per tetramer)
T1 sequence (P94632 1-290): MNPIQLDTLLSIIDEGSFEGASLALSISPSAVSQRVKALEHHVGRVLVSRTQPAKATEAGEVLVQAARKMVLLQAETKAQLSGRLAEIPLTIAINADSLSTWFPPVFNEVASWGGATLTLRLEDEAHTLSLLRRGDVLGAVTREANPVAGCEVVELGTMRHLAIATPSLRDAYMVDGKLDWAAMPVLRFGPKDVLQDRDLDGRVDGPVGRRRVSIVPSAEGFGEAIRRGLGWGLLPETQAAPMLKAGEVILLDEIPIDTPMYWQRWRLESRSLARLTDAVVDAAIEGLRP

LysG-A219L [2] = target: T2, LysG-A219L (Corynebacterium glutamicum, UniProt P94632, A219L); assay: as above
LysG [3] = target: T1, LysG; assay: X-ray co-crystal structure ([…] Å) and ITC; parameters: full-length LysG
LysG-A219L [4] = target: T2, LysG-A219L; assay: ITC with purified protein
LysG [5] = target: T1, LysG; assay: ITC with purified protein

NCCCC[C@H](N)C(=O)O [L-lysine]
Kd (LysG [1]): 3290 µM

N=C(N)NCCC[C@H](N)C(=O)O [L-arginine]
Kd (LysG-A219L [2]): 9620 µM | Kd (LysG [3]): 1150 µM

N[C@@H](Cc1c[nH]cn1)C(=O)O [L-histidine]
Kd (LysG-A219L [4]): 20.7 µM | Kd (LysG [5]): 16 µM
